Source: a melting point compilation (Tetko et al.; mined from patent text by program, amines drawn as free bases though some values may be those of a salt)

For c1ccc(CCN2Cc3sccc3C(c3ccccc3)C2)cc1 (stereo not given), which melting point is on record?
Its melting point is 110 °C.

With COc1cc(CCCC(O)C(=O)OC(C)C)ccc1OCc1nc(-c2ccco2)oc1C (stereo not given) as the compound, how does the melting point read?
Its melting point is 75 to 76 °C.

With CCCOc1ccccc1-c1nc(O)cc(C(=O)NC)n1 as the compound, how does the melting point read?
Its melting point is 165 to 166 °C.

With CC(=O)Nc1nc(C)c(S(=O)(=O)n2c(CCCC(=O)O)cc3cc(Cl)ccc32)s1 as the compound, how does the melting point read?
The melting point was 231 to 233 °C.

For CCCc1nn(CC)c2c(=O)[nH]c(-c3ccccc3OCC)nc12, which melting point is on record?
Its melting point is 114 to 115 °C.

With Cn1c(C(F)(F)F)nn(-c2ccccc2[N+](=O)[O-])c1=O as the compound, how does the melting point read?
The melting point was 83 °C.

For CCC(=O)OCC(OC(=O)CC)C1OC(OC(=O)CC)C(OC(=O)CC)C1OC(=O)CC (stereo not given), which melting point is on record?
The melting point was 74.5 to 75.5 °C.

Which melting point does the source give for CC(=O)N1C(=O)c2ccccc2N(C(C)=O)C1C(Cl)(Cl)Cl (stereo not given) here?
The melting point was 152 to 154 °C.

For O=C(O)c1cccc(C(=O)O)c1Nc1ccc(I)cc1, which melting point is on record?
Its melting point is 241 to 243 °C.

Which melting point does the source give for CCCc1c(C#N)c(-c2ccc(C#N)cc2)c(C)n1Cc1cnc(Cl)c(COC(=O)CCC(=O)O)c1 here?
The melting point was 167 to 168 °C.

For CCOC(=O)N1CCC2CN(c3c(F)cc4c(=O)c(C(=O)O)cn(C5CC5)c4c3F)CC21 (stereo not given), which melting point is on record?
Its melting point is 191 to 192 °C.

Which melting point does the source give for Cc1ccc2[nH]c(C(=O)OCc3ccccc3)cc2c1 here?
The melting point was 150 to 152 °C.

With CCS(=O)c1cc(C(=O)O)c(OC)cc1N (stereo not given) as the compound, how does the melting point read?
Its melting point is 158 °C.

Which melting point does the source give for CN1CCc2ccccc2C1=NNC(=O)Nc1ccc(C(F)(F)F)cc1 here?
The melting point was 101 to 104 °C.

With COc1cc(Nc2nccc(-c3ccc(OCCCN)cc3)n2)cc(OC)c1OC as the compound, how does the melting point read?
The melting point was 161 to 162 °C.

With CS(=O)(=O)c1cccc(-c2ccccc2NC(=S)NC(=O)c2ccccc2)c1 as the compound, how does the melting point read?
Its melting point is 179 to 180 °C.

With O=C(NCc1ccc(Cl)cc1)c1cnc2c(F)cc(-c3cc(Br)cs3)cc2c1O as the compound, how does the melting point read?
The melting point was 281 to 283 °C.

With Cc1cc(Cl)c(Cl)cc1NC(=O)C1(C(=O)O)CC1 as the compound, how does the melting point read?
Its melting point is 248 to 251 °C.

With O=C1c2ccccc2-n2cnc(Br)c2[C@@H]2CCCN12 as the compound, how does the melting point read?
Its melting point is 225 to 226 °C.

For CCOC(=O)CC1(S(N)(=O)=O)c2ccccc2-c2ccccc21, which melting point is on record?
Its melting point is 167 to 170 °C.

For COC(=O)c1ccc(/C=C(\C)c2ccc3c(c2)OC(C)(C)O3)cc1, which melting point is on record?
Its melting point is 72 to 74 °C.

For CC(C)C(NS(=O)(=O)c1ccc(-c2ccc([N+](=O)[O-])cc2)cc1)C(=O)O (stereo not given), which melting point is on record?
Its melting point is 165 to 167 °C.

For CNc1nc(Nc2ccc(OCCNC(=O)OC(C)(C)C)cc2)ncc1[N+](=O)[O-], which melting point is on record?
Its melting point is 205 to 207 °C.

For CC(C)(C)C(O)C(=Cc1ccc2ccccc2c1)n1cncn1 (stereo not given), which melting point is on record?
Its melting point is 122 to 124 °C.

With Cc1nc(-c2ccc(C(F)(F)F)cc2)ccc1CO as the compound, how does the melting point read?
The melting point was 76 to 78 °C.

For Nc1nccc(OCCc2ccccc2)c1[N+](=O)[O-], which melting point is on record?
Its melting point is 131 to 132 °C.

With CC(=O)OCc1ccc(Sc2ccccc2C(=O)N(C)C)c([N+](=O)[O-])c1 as the compound, how does the melting point read?
The melting point was 117 to 118 °C.

For CC1(C)c2ccccc2C(C)(C)C1(CC#N)SN=O, which melting point is on record?
The melting point was 67 to 69 °C.

Which melting point does the source give for CC(C(=O)O)c1ccc(C2=CCCCC2)cc1 (stereo not given) here?
The melting point was 101 to 102 °C.

For Cc1cccc(NC(=O)NC2CN(C(=O)C3CCCCC3)c3ccccc3N(c3ccccc3)C2=O)c1 (stereo not given), which melting point is on record?
The melting point was 165 to 168 °C.

Which melting point does the source give for CC(=S)NC[C@H]1CN(c2ccc(N3CCC(n4ccnn4)CC3)c(F)c2)C(=O)O1 here?
Its melting point is 171 to 172 °C.

Which melting point does the source give for O=c1[nH]c(C(F)(F)F)nc2ccccc12 here?
Its melting point is 220 °C.

Which melting point does the source give for COc1ccc(-c2cc(CO)c(=O)n(CC=Cc3ccc(Cl)cc3)n2)cc1F here?
Its melting point is 158 to 160 °C.

With CCNc1ccc(Cc2ccc(NCC)c3ccccc23)c2ccccc12 as the compound, how does the melting point read?
The melting point was 165 to 168 °C.

For CCC1(SC)CCC2C3CCC4=CC(=O)C=CC4(C)C3(F)C(O)CC21C (stereo not given), which melting point is on record?
Its melting point is 252 to 254 °C.

With CC(C)(C)c1ccc(C(=O)c2ccccc2O)c(C(C)(C)C)c1O as the compound, how does the melting point read?
The melting point was 126 to 128 °C.

Which melting point does the source give for Cc1cc(C)cc(C(=O)c2c(C(C)C)c(=O)[nH]c(=O)n2CC2CCCC2)c1 here?
The melting point was 167 to 168 °C.

Which melting point does the source give for OCc1conc1-c1ccc(Cl)c(F)c1 here?
Its melting point is 124 to 125 °C.

For Nc1nc(O)c2c(n1)NCC(CN(C=O)Cc1ccc(C(=O)N[C@@H](CCC(=O)O)C(=O)O)cc1)C2 (stereo not given in full), which melting point is on record?
The melting point was 178 °C.

For O=[N+]([O-])c1ccccc1NCc1ccccc1, which melting point is on record?
Its melting point is 65 to 67 °C.

With OCC1(c2ccc(Cl)cc2)CCC1 as the compound, how does the melting point read?
Its melting point is 53 to 54 °C.

For COc1ccc(-c2nc(N)ncc2-c2ccc(=O)[nH]n2)cc1F, which melting point is on record?
Its melting point is 250 °C.

For COC(=O)/C(O)=C1/C(=O)c2ccc(OC)cc2CC1C (stereo not given), which melting point is on record?
Its melting point is 89 to 89.6 °C.

With COC(=O)C(=CN(C)C)c1sc(Cl)nc1COc1ccccc1 as the compound, how does the melting point read?
The melting point was 114 °C.

For CCNC(=O)n1ccc(O)cc1=O, which melting point is on record?
The melting point was 272 °C.

With CCOc1cc2c(Nc3cc(OC)c(Cl)cc3Cl)c(C#N)cnc2cc1I as the compound, how does the melting point read?
Its melting point is 213 to 215 °C.

Which melting point does the source give for C=CCOc1cc(OC(=S)N2CCCC2)ccc1Cl here?
The melting point was 87.3 to 91.1 °C.

With COc1cc2c(cc1OC)CCCCC(C(=O)O)=C2 as the compound, how does the melting point read?
Its melting point is 200 to 201 °C.

With CS(=O)(=O)Nc1ccc(C(CC2CCCC2)C(=O)Nc2nccs2)cc1 (stereo not given) as the compound, how does the melting point read?
The melting point was 85 to 90 °C.

Which melting point does the source give for Cc1ccn2c(Br)c(CCc3ccc4nc(N)sc4c3)nc2c1 here?
The melting point was 233 to 236 °C.
